Reference: PubChem BioAssay AID1259407 (Chemical Carcinogenesis Research Information System (CCRIS), 2018)
The source made the active and inactive calls. How the calls were made is not given here.

Test system: CCRIS mutagenicity, Ames/micronucleus/aberration tests
Experiment: CCRIS mutagenicity studies

Cc1ccccc1N
mutagenic call (Test System: AMES SALMONELLA TYPHIMURIUM, Strain/Indicator: TA104, Metabolic Activation: HAMSTER, LIVER, S-9, SODIUM PHENOBARBITAL AND 5,6-BENZOFLAVONE, Method: PREINCUBATION): inactive; negative
mutagenic call (Test System: AMES SALMONELLA TYPHIMURIUM, Strain/Indicator: TA104, Metabolic Activation: NONE, Method: PREINCUBATION): inactive; negative
mutagenic call (Test System: AMES SALMONELLA TYPHIMURIUM, Strain/Indicator: TA1535, Metabolic Activation: HAMSTER LIVER S-9, AROCLOR 1254 (10%), Method: PREINCUBATION): inactive; negative
mutagenic call (Test System: AMES SALMONELLA TYPHIMURIUM, Strain/Indicator: TA1535, Metabolic Activation: HAMSTER, LIVER, S-9, AROCLOR 1254 (10%), Method: PREINCUBATION): inactive; negative
mutagenic call (Test System: AMES SALMONELLA TYPHIMURIUM, Strain/Indicator: TA1535, Metabolic Activation: HAMSTER, LIVER, S-9, SODIUM PHENOBARBITAL AND 5,6-BENZOFLAVONE, Method: PREINCUBATION): inactive; negative
mutagenic call (Test System: AMES SALMONELLA TYPHIMURIUM, Strain/Indicator: TA1535, Metabolic Activation: NONE, Method: PREINCUBATION): inactive; negative
mutagenic call (Test System: AMES SALMONELLA TYPHIMURIUM, Strain/Indicator: TA1535, Metabolic Activation: NONE, Method: STANDARD PLATE): inactive; negative
mutagenic call (Test System: AMES SALMONELLA TYPHIMURIUM, Strain/Indicator: TA1535, Metabolic Activation: RAT LIVER S-9, AROCLOR 1254 (10 OR 30%), Method: PREINCUBATION): inactive; negative
mutagenic call (Test System: AMES SALMONELLA TYPHIMURIUM, Strain/Indicator: TA1535, Metabolic Activation: RAT, LIVER, S-9, AROCLOR 1254 (10%), Method: PREINCUBATION): inactive; negative
mutagenic call (Test System: AMES SALMONELLA TYPHIMURIUM, Strain/Indicator: TA1535, Metabolic Activation: RAT, LIVER, S-9, AROCLOR 1254, Method: STANDARD PLATE): inactive; negative
mutagenic call (Test System: AMES SALMONELLA TYPHIMURIUM, Strain/Indicator: TA1537, Metabolic Activation: HAMSTER, LIVER, S-9, AROCLOR 1254 (10%), Method: PREINCUBATION): inactive; negative
mutagenic call (Test System: AMES SALMONELLA TYPHIMURIUM, Strain/Indicator: TA1537, Metabolic Activation: HAMSTER, LIVER, S-9, SODIUM PHENOBARBITAL AND 5,6-BENZOFLAVONE, Method: PREINCUBATION): inactive; negative
mutagenic call (Test System: AMES SALMONELLA TYPHIMURIUM, Strain/Indicator: TA1537, Metabolic Activation: NONE, Method: PREINCUBATION): inactive; negative
mutagenic call (Test System: AMES SALMONELLA TYPHIMURIUM, Strain/Indicator: TA1537, Metabolic Activation: NONE, Method: STANDARD PLATE): inactive; negative
mutagenic call (Test System: AMES SALMONELLA TYPHIMURIUM, Strain/Indicator: TA1537, Metabolic Activation: RAT, LIVER, S-9, AROCLOR 1254 (10%), Method: PREINCUBATION): inactive; negative
mutagenic call (Test System: AMES SALMONELLA TYPHIMURIUM, Strain/Indicator: TA1537, Metabolic Activation: RAT, LIVER, S-9, AROCLOR 1254, Method: STANDARD PLATE): inactive; negative
mutagenic call (Test System: AMES SALMONELLA TYPHIMURIUM, Strain/Indicator: TA1538, Metabolic Activation: NONE, Method: STANDARD PLATE): inactive; negative
mutagenic call (Test System: AMES SALMONELLA TYPHIMURIUM, Strain/Indicator: TA1538, Metabolic Activation: RAT, LIVER, S-9, AROCLOR 1254, Method: STANDARD PLATE): inactive; negative
mutagenic call (Test System: CHINESE HAMSTER OVARY, Strain/Indicator: CHO/6-THIOGUANINE, Metabolic Activation: HAMSTER EMBRYO CELL-MEDIATED): inactive; negative
mutagenic call (Test System: CHINESE HAMSTER OVARY, Strain/Indicator: CHO/6-THIOGUANINE, Metabolic Activation: NONE): inactive; negative
mutagenic call (Test System: CHINESE HAMSTER OVARY, Strain/Indicator: CHO/OUABAIN, Metabolic Activation: NONE): inactive; negative
mutagenic call (Test System: CHINESE HAMSTER V-79, Strain/Indicator: V-79 (HGPRT)/6-THIOGUANINE, Metabolic Activation: NONE): inactive; negative
mutagenic call (Test System: CHINESE HAMSTER V-79, Strain/Indicator: V-79 (HGPRT)/6-THIOGUANINE, Metabolic Activation: RAT, LIVER, S-9, PHENOBARBITAL AND BETA-NAPHTHOFLAVONE): inactive; negative
mutagenic call (Test System: CHINESE HAMSTER V-79, Strain/Indicator: V-79/6-THIOGUANINE, Metabolic Activation: NONE, Method: REPLATING): active; positive
mutagenic call (Test System: CHINESE HAMSTER V-79, Strain/Indicator: V-79/6-THIOGUANINE, Metabolic Activation: RAT, LIVER, S-9, PHENOBARBITAL AND 5,6-BENZOFLAVONE, Method: REPLATING): inactive; negative
mutagenic call (Test System: CHINESE HAMSTER V-79, Strain/Indicator: V-79/OUABAIN, Metabolic Activation: NONE): inactive; negative
mutagenic call (Test System: CHINESE HAMSTER V-79, Strain/Indicator: V-79/OUABAIN, Metabolic Activation: RAT, LIVER, S-15, PHENOBARBITAL AND 5,6-BENZOFLAVONE): inactive; negative
mutagenic call (Test System: E. COLI, Strain/Indicator: WP2UVRA/PKM101, Metabolic Activation: HAMSTER, LIVER, S-9, SODIUM PHENOBARBITAL AND 5,6-BENZOFLAVONE, Method: PREINCUBATION): inactive; negative
mutagenic call (Test System: E. COLI, Strain/Indicator: WP2UVRA/PKM101, Metabolic Activation: NONE, Method: PREINCUBATION): inactive; negative
mutagenic call (Test System: E. COLI, Strain/Indicator: WP2UVRA, Metabolic Activation: HAMSTER, LIVER, S-9, SODIUM PHENOBARBITAL AND 5,6-BENZOFLAVONE, Method: PREINCUBATION): inactive; negative
mutagenic call (Test System: E. COLI, Strain/Indicator: WP2 UVRA, Metabolic Activation: NONE, Method: PREINCUBATION): inactive; negative
mutagenic call (Test System: E. COLI, Strain/Indicator: WP2UVRA, Metabolic Activation: NONE, Method: PREINCUBATION): inactive; negative
mutagenic call (Test System: E. COLI, Strain/Indicator: WP2 UVRA, Metabolic Activation: RAT, LIVER, S-9, PHENOBARBITAL AND 5,6-BENZOFLAVONE, Method: PREINCUBATION): inactive; negative
mutagenic call (Test System: MOUSE LYMPHOMA, Strain/Indicator: L5178Y (TK+/+)/OUABAIN, Metabolic Activation: NONE, Method: SUSPENSION/PLATE): inactive; negative
mutagenic call (Test System: MOUSE LYMPHOMA, Strain/Indicator: L5178Y (TK+/+)/OUABAIN, Metabolic Activation: RAT LIVER S-9, AROCLOR 1254, Method: SUSPENSION/PLATE): inactive; negative
mutagenic call (Test System: MOUSE LYMPHOMA, Strain/Indicator: L5178Y (TK+/-)/TRIFLUROTHYMIDINE, Metabolic Activation: NONE, Method: SUSPENSION/PLATE): inactive; negative
mutagenic call (Test System: MOUSE LYMPHOMA, Strain/Indicator: L5178Y (TK+/-)/TRIFLUROTHYMIDINE, Metabolic Activation: RAT LIVER S-9, AROCLOR 1254, Method: SUSPENSION/PLATE): inactive; negative
mutagenic call (Test System: MOUSE LYMPHOMA, Strain/Indicator: L5178Y (TK+/TK-), Metabolic Activation: NONE, Method: SUSPENSION/PLATE): inactive; negative
mutagenic call (Test System: MOUSE LYMPHOMA, Strain/Indicator: L5178Y (TK+/TK-), Metabolic Activation: RAT, LIVER, S-9, Method: SUSPENSION/PLATE): inactive; negative
mutagenic call (Test System: UDS RAT HEPATOCYTES, Strain/Indicator: THY INCORP, Metabolic Activation: NONE, Method: LIQUID SCINTILLATION COUNTING): active; positive
